{
  "source": "patent US5321023A",
  "about": "“Pyridoindolobenzodiazepines and derivatives as antipsychotics” (The Du Pont Merck Pharmaceutical Co., priority 1992, dated 1994)",
  "data": [
    {"test_system": "rat", "assay": "Conditioned Avoidance Responding in Rat", "assay_type": "in vivo, rat (male CDF)", "conditions": "inhibition of conditioned avoidance responding, oral, tested 30-360 minutes after administration, % of vehicle control, read-out: Peak ED50", "from_the_text": "Conditioned Avoidance Responding in Rat\nThe procedure utilized is a modification of the procedure of Cook and Weidley (Ann. NY Acad Sci.66: 740-752, 1957).\nApparatus: A Coulbourn Instruments large modular test cage (25×30×30 cm) with a pole suspended from the center of the ceiling and a stainless steel grid floor. A 0.75 mA pulsed current (250 msec on, 750 msec off) is delivered to the grid floor by a Coulbourn Instruments programmable shocker.\nAnimals: Male CDF rats are purchased from Charles River Breeding Laboratories (Wilmington, Mass.).\nTest Procedure: Each trial lasts 25 seconds. Ten seconds after the rat is placed in the testing apparatus, footshock is delivered for 15 seconds. The rat is immediately removed from the testing apparatus. If the rat climbs the pole within the first 10 seconds, footshock is avoided and an avoidance response is recorded. If the rat climbs the pole during the footshock period, an escape response is recorded. If the animal fails to climb the pole during the 25 second trial period, an escape failure is recorded.\nDrug testing is initiated after rats are well trained to consistently avoid footshock. Rats are tested for conditioned avoidance responding at various time intervals (30-360 minutes) after oral administration of test compound.\nFor each dose of test compound, inhibition of conditioned avoidance responding is expressed as a percentage of the corresponding Drug Vehicle (control) value. The percent antagonism is used to calculate ED50 values when appropriate.", "units": {"ED50": "mg/kg"}, "values": [
      {"molecule": "Cc1cc2c3c(c1)c1c(n3-c3ccc(Cl)cc3NC2=O)CCN(C)C1", "note": "[Example 1, 11-chloro-1,2,3,4,8,9-hexahydro-3,6-dimethylpyrido[4',3':2,3]indolo[1,7-ab][1,5]benzodiazepin-8(9H)-one]", "ED50": "≤ 20"},
      {"molecule": "Cc1cc2c3c(c1)c1c(n3-c3ccc(C(F)(F)F)cc3NC2=O)CCN(C)C1", "note": "[Example 3]", "ED50": "20 to 50"},
      {"molecule": "Cc1cc2c3c(c1)c1c(n3-c3ccc(Cl)cc3NC2)CCN(C)C1", "note": "[Example 23, 11-chloro-1,2,3,4,8,9-hexahydro-3,6-dimethylpyrido[4',3':2,3]indolo[1,7-ab][1,5]benzodiazepine]", "ED50": "≤ 20"},
      {"molecule": "Cc1cc2c3c(c1)c1c(n3-c3ccc(C(F)(F)F)cc3NC2)CCN(C)C1", "note": "[Example 25]", "ED50": "≤ 20"}
    ]}
  ]
}
